Data from patent US20260224588A1, “BENZODIAZEPINONE-DERIVED INHIBITORS OF EGFR AND HER2” (The Research Foundation for the State University of New York, priority 2023, published 2026).
“Also recorded” adds a separate entry of the source.

Key:
BRSK1 = BRSK1 (Homo sapiens, UniProt Q8TDC3); test: KINOMEscan; type: binding; conditions: 1 μM of compound 4; read-out: POC
SGK2 = biological target: T1, SGK2 (Homo sapiens, UniProt Q9HBY8); test: KINOMEscan; type: binding; conditions: 1 μM of compound 4; read-out: POC
T1 construct: purchased Eurofins DiscoverX (KINOMEscan service)

[1] = test system: EGFR (delE746-A750) in HCC827 cells; test: Western blotting of EGFR phosphorylation; type: cell-based, human; conditions: 6 hours treatment
Experimental: FIG. 2. […] All experiments performed after 6 hours treatments of inhibitors or DMSO controls and Western blots are representative of at least three independent experiments.
Western blotting. Cells were collected and lysed with lysis buffer (5M NaCl, 1M TRIS pH 8.0, 10% SDS, 10% Triton X-100 and a tablet of protease inhibitors) and processed for Western blotting analysis. Primary antibodies used; phospho-EGFR (Tyr1068; #2234, 1:1,000), EGFR (#4267; 1:1,000), phospho-AKT (Ser473; #4060, 1:1,000), AKT (#9272, 1:1,000), phospho-ERK1/2 (Thr202/Tyr204; #4370, 1:1,000), and ERK1/2 (#4695, 1:1,000) antibodies; were purchased from Cell Signaling Technology. Secondary Goat anti-rabbit IgG starbright blue 700 and Anti-tubulin hFAB Rhodamine Tubulin were purchased from Bio-rad.

[2] = biological target: JAK3(JH1domain-catalytic) (Homo sapiens, UniProt P52333); test: KINOMEscan; type: binding; conditions: 1 μM of compound 4; read-out: POC
EPHB1 = biological target: T2, EPHB1 (Homo sapiens, UniProt P54762); test: KINOMEscan; type: binding; conditions: 1 μM of compound 4; read-out: POC
T2 construct: purchased Eurofins DiscoverX (KINOMEscan service)

PIK3CG = PIK3CG (Homo sapiens, UniProt P48736); test: KINOMEscan; type: binding; conditions: 1 μM of compound 4; read-out: POC
PCTK2 = biological target: T3, PCTK2 (Homo sapiens, UniProt Q00537); test: KINOMEscan; type: binding; conditions: 1 μM of compound 4; read-out: POC
T3 construct: purchased Eurofins DiscoverX Corporation (KINOMEscan)

EPHA4 = biological target: T4, EPHA4 (Homo sapiens, UniProt P54764); test: KINOMEscan; type: binding; conditions: 1 μM of compound 4; read-out: POC
T4 construct: purchased Eurofins DiscoverX (KINOMEscan service)

PIM3 = PIM3 (Homo sapiens, UniProt Q86V86); test: KINOMEscan; type: binding; conditions: 1 μM of compound 4; read-out: POC
[3] = biological target: T5, ABL1(F317L)-phosphorylated (Homo sapiens, UniProt P00519, F317L); test: KINOMEscan; type: binding; conditions: 1 μM of compound 4; read-out: POC
T5 construct: purchased Eurofins DiscoverX Corporation

ANKK1 = ANKK1 (Homo sapiens, UniProt Q8NFD2); test: KINOMEscan; type: binding; conditions: 1 μM of compound 4; read-out: POC
CDK8 = CDK8 (Homo sapiens, UniProt P49336); test: KINOMEscan; type: binding; conditions: 1 μM of compound 4; read-out: POC
NEK5 = NEK5 (Homo sapiens, UniProt Q6P3R8); test: KINOMEscan; type: binding; conditions: 1 μM of compound 4; read-out: POC
TRPM6 = biological target: T6, TRPM6 (Homo sapiens, UniProt Q9BX84); test: KINOMEscan; type: binding; conditions: 1 μM of compound 4; read-out: POC
T6 construct: purchased Eurofins DiscoverX Corporation

NIK = biological target: T7, NIK (Homo sapiens, UniProt Q99558); test: KINOMEscan; type: binding; conditions: 1 μM of compound 4; read-out: POC
T7 construct: purchased Eurofins DiscoverX Corporation (KINOMEscan)

DCAMKL2 = DCAMKL2 (Homo sapiens, UniProt Q8N568); test: KINOMEscan; type: binding; conditions: 1 μM of compound 4; read-out: POC
MELK = MELK (Homo sapiens, UniProt Q14680); test: KINOMEscan; type: binding; conditions: 1 μM of compound 4; read-out: POC
[4] = biological target: T8, EGFR(L747-T751del + Sins) (Homo sapiens, UniProt P00533, DEL747-750/T751S); test: KINOMEscan; type: binding; conditions: 1 μM of compound 4; read-out: POC
T8 construct: purchased Eurofins DiscoverX (KINOMEscan service)

CAMK4 = CAMK4 (Homo sapiens, UniProt Q16566); test: KINOMEscan; type: binding; conditions: 1 μM of compound 4; read-out: POC
KIT(L576P) = KIT(L576P) (Homo sapiens, UniProt P10721, L576P); test: KINOMEscan; type: binding; conditions: 1 μM of compound 4; read-out: POC
PRKG1 = PRKG1 (Homo sapiens, UniProt Q13976); test: KINOMEscan; type: binding; conditions: 1 μM of compound 4; read-out: POC
MST1 = MST1 (Homo sapiens, UniProt Q13043); test: KINOMEscan; type: binding; conditions: 1 μM of compound 4; read-out: POC
LTK = LTK (Homo sapiens, UniProt P29376); test: KINOMEscan; type: binding; conditions: 1 μM of compound 4; read-out: POC
CSK = CSK (Homo sapiens, UniProt P41240); test: KINOMEscan; type: binding; conditions: 1 μM of compound 4; read-out: POC
CLK1 = CLK1 (Homo sapiens, UniProt P49759); test: KINOMEscan; type: binding; conditions: 1 μM of compound 4; read-out: POC
BLK = BLK (Homo sapiens, UniProt P51451); test: KINOMEscan; type: binding; conditions: 1 μM of compound 4; read-out: POC
[5] = biological target: T9, RPS6KA4(Kin.Dom.1-N-terminal) (Homo sapiens, UniProt O75676); test: KINOMEscan; type: binding; conditions: 1 μM of compound 4; read-out: POC
T9 construct: RPS6KA4(Kin.Dom.1-N-terminal); purchased Eurofins DiscoverX Corporation (KINOMEscan screening service)

CSNK2A2 = CSNK2A2 (Homo sapiens, UniProt P19784); test: KINOMEscan; type: binding; conditions: 1 μM of compound 4; read-out: POC
EGFR(L858R + T790M) = biological target: T10, EGFR(L858R + T790M) (Homo sapiens, UniProt P00533, L858R/T790M); test: KINOMEscan; type: binding; conditions: 1 μM of compound 4; read-out: POC
T10 construct: purchased Eurofins DiscoverX (KINOMEscan service)

MLK2 = MLK2 (Homo sapiens, UniProt Q02779); test: KINOMEscan; type: binding; conditions: 1 μM of compound 4; read-out: POC
ABL2 = biological target: T11, ABL2 (Homo sapiens, UniProt P42684); test: KINOMEscan; type: binding; conditions: 1 μM of compound 4; read-out: POC
T11 construct: purchased Eurofins DiscoverX Corporation

GAK = biological target: T12, GAK (Homo sapiens, UniProt O14976); test: KINOMEscan; type: binding; conditions: 1 μM of compound 4; read-out: POC
T12 construct: purchased Eurofins DiscoverX Corporation

ERBB3 = biological target: T13, ERBB3 (Homo sapiens, UniProt P21860); test: KINOMEscan; type: binding; conditions: 1 μM of compound 4; read-out: POC
T13 construct: purchased Eurofins DiscoverX Corporation

MELK, sequence (Q14680 whole entry): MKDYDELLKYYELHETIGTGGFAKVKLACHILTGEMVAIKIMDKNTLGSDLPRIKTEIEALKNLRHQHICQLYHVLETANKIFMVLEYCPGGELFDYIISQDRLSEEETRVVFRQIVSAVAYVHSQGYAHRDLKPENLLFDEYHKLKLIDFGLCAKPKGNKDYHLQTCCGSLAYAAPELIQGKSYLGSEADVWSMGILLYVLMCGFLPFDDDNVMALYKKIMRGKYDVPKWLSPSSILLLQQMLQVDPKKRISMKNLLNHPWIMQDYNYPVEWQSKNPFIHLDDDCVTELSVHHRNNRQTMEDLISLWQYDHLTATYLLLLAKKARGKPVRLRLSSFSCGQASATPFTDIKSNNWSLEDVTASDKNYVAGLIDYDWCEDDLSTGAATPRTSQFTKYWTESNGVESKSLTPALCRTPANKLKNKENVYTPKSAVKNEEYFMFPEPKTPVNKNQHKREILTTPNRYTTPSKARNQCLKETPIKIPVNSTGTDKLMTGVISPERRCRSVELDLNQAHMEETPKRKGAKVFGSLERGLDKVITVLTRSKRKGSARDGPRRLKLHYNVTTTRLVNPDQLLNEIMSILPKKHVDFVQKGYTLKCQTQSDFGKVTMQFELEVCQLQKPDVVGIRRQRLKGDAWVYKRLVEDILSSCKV
T5 sequence (P00519 whole entry F317L): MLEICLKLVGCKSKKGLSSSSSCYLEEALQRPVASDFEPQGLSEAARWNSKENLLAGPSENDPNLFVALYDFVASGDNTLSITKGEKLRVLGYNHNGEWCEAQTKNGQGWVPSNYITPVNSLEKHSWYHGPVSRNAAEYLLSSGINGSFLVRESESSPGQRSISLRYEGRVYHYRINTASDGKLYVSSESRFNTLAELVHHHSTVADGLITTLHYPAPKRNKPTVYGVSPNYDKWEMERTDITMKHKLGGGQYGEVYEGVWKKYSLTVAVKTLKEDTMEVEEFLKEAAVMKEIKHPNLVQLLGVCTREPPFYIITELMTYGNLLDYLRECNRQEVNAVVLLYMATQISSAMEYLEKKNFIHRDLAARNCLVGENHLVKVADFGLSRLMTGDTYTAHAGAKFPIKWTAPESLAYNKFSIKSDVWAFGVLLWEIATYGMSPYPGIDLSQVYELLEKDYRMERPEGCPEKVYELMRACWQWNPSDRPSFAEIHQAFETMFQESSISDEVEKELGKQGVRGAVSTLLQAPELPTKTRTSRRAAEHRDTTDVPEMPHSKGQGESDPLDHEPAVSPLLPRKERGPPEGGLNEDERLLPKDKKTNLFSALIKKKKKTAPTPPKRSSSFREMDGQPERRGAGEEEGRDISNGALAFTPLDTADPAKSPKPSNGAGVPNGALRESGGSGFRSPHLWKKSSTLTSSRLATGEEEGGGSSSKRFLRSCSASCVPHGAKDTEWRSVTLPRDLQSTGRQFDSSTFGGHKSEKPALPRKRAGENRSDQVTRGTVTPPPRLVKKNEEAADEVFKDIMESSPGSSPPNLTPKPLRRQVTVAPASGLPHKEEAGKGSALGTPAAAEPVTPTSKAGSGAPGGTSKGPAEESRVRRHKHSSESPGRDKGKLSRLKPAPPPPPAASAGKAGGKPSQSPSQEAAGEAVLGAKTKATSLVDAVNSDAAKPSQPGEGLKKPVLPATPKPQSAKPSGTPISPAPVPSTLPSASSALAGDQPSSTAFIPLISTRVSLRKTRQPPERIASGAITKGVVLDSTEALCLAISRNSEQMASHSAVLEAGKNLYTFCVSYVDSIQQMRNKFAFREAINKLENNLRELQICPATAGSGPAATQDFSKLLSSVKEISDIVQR
KIT(L576P), sequence (P10721 26-976 L576P): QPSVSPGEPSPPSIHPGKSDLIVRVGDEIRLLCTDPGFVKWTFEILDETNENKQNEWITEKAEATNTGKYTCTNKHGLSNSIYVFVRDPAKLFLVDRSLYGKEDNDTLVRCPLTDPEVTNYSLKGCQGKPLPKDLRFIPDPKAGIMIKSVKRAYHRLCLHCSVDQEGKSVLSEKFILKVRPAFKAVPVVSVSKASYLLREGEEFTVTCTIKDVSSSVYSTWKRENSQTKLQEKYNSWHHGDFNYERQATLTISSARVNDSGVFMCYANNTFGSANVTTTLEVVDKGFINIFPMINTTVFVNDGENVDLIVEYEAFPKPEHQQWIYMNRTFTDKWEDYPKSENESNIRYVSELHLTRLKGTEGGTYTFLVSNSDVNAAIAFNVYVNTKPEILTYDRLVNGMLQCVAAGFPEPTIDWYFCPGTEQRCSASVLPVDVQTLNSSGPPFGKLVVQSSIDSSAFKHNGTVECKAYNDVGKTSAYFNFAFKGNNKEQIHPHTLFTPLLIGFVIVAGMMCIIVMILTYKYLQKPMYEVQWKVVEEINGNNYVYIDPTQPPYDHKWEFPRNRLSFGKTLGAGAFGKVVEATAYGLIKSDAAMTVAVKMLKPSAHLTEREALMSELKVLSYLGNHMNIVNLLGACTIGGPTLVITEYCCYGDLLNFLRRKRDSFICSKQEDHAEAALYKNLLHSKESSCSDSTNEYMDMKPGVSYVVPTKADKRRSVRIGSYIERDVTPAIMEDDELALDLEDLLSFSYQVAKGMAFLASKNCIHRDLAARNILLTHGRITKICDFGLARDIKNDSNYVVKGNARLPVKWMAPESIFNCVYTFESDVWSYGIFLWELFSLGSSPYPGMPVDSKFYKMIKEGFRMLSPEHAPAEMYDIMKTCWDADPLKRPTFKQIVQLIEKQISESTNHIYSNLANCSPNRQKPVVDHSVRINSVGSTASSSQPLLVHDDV
T8 sequence (P00533 with tags, fused parts or gaps DEL747-750/T751S limits assumed): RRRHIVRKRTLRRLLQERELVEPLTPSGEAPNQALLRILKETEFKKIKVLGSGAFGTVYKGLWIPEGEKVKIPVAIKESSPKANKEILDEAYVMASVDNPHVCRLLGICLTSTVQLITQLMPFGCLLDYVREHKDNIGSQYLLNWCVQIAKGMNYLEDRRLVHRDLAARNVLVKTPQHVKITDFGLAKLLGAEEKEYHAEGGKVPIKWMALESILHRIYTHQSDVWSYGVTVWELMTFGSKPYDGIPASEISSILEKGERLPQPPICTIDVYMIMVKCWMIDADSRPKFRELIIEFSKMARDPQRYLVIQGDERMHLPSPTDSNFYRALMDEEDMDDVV
PRKG1, sequence (Q13976 whole entry): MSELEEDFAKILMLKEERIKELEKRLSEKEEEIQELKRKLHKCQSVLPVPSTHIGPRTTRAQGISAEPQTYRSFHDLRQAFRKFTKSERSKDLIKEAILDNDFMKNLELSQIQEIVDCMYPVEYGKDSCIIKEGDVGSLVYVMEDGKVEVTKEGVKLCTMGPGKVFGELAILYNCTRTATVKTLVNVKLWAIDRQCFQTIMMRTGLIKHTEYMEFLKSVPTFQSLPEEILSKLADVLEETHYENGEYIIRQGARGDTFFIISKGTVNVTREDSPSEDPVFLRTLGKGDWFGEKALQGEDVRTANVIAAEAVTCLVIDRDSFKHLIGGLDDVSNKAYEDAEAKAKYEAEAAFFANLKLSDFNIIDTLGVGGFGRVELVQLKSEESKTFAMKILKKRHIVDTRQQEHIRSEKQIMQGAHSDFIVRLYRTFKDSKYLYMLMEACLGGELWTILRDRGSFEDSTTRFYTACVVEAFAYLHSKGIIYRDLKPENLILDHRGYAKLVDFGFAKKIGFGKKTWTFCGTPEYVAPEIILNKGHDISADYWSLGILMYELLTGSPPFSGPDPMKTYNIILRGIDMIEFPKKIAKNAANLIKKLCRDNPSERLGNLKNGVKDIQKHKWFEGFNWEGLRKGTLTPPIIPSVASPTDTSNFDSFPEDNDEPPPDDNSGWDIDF
CSK, sequence (P41240 whole entry): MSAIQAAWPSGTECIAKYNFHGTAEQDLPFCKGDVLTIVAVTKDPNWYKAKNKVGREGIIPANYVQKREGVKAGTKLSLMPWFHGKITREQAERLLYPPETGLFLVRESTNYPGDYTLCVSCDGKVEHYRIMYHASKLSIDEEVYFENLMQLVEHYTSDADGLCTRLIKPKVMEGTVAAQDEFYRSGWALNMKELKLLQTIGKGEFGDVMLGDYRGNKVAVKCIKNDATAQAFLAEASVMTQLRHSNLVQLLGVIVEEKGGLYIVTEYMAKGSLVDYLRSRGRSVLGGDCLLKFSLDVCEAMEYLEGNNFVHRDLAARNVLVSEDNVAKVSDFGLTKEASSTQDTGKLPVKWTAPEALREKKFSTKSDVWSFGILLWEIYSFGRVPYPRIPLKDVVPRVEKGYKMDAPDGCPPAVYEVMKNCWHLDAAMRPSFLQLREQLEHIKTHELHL
NEK5, sequence (Q6P3R8 whole entry): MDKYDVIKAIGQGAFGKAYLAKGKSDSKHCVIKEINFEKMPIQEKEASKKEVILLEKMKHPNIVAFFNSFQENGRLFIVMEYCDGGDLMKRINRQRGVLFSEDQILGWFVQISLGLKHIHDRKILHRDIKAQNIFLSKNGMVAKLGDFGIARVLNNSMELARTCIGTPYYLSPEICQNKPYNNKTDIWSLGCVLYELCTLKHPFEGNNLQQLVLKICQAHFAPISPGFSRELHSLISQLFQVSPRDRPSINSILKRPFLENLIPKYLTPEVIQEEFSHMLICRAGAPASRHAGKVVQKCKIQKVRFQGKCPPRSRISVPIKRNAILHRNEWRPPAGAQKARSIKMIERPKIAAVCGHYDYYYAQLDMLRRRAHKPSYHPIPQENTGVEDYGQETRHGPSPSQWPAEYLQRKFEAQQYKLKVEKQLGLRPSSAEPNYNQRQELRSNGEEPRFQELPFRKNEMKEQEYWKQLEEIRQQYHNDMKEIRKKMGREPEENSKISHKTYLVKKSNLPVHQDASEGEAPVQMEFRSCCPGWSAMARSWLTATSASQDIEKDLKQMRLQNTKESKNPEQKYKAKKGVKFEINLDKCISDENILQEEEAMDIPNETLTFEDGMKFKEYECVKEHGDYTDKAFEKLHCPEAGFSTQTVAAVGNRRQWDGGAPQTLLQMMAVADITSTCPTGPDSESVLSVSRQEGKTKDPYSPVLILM

C=CC(=O)Nc1ccc(OC)c(Nc2cc(-c3[nH]c(CC)nc3-c3cccc(NC(=O)c4cccc5c4NC(=O)c4ccccc4N5)c3)ccn2)c1 [Compound 4, N-(3-(5-(2-((5-Acrylamido-2-methoxyphenyl)amino)pyridin-4-yl)-2-ethyl-1H-imidazol-4-yl)phenyl)-11-oxo-10,11-dihydro-5H-dibenzo[b,e][1,4]diazepine-9-carboxamide]
remaining binding at 1 µM (BRSK1): 100%
remaining binding at 1 µM (SGK2): 83%
EGFR phosphorylation (Western blot) [1]: similarly active; also recorded: effectively ablates EGFR (delE746-A750) phosphorylation
remaining binding at 1 µM [2]: 100%
remaining binding at 1 µM (EPHB1): 92%
remaining binding at 1 µM (PIK3CG): 65%
remaining binding at 1 µM (PCTK2): 100%
remaining binding at 1 µM (EPHA4): 95%
remaining binding at 1 µM (PIM3): 100%
remaining binding at 1 µM [3]: 85%
remaining binding at 1 µM (ANKK1): 87%
remaining binding at 1 µM (CDK8): 81%
remaining binding at 1 µM (NEK5): 100%
remaining binding at 1 µM (TRPM6): 99%
remaining binding at 1 µM (NIK): 100%
remaining binding at 1 µM (DCAMKL2): 100%
remaining binding at 1 µM (MELK): 100%
remaining binding at 1 µM [4]: 7.6%
remaining binding at 1 µM (CAMK4): 99%
remaining binding at 1 µM (KIT(L576P)): 84%
remaining binding at 1 µM (PRKG1): 100%
remaining binding at 1 µM (MST1): 6%
remaining binding at 1 µM (LTK): 48%
remaining binding at 1 µM (CSK): 14%
remaining binding at 1 µM (CLK1): 100%
remaining binding at 1 µM (BLK): 1.7%
remaining binding at 1 µM [5]: 96%
remaining binding at 1 µM (CSNK2A2): 58%
remaining binding at 1 µM (EGFR(L858R + T790M)): 8.3%
remaining binding at 1 µM (MLK2): 97%
remaining binding at 1 µM (ABL2): 92%
remaining binding at 1 µM (GAK): 16%
remaining binding at 1 µM (ERBB3): 84%
